# Patent US20140039044A1, “Hydroxylated Polymethoxyflavone Compositions” (WLLGEN, INC., priority 2006, published 2014)
# Like-named read-outs stand apart in the source and are kept apart here.
# What was measured:
# Assay type in all cases: cell-based, human
# [1] = tested on: AGS cells; assay: Cell survival assay (antiproliferative IC50); conditions: AGS cells, read-out: Antiproliferative IC50
# Protocol: (§1) Human colon carcinoma COLO205 and HT-29 cell lines (American Type Culture Collection (ATTC), Manassas, Va.) and the leukemia cell line HL-60 were maintained at 37° C. in 5% CO2 air in RPMI 1640 medium supplemented with 10% heat-inactivated fetal bovine serum (Gibco BRL, Grand Island, N.Y.), 100 units/mL penicillin, 100 μg/mL streptomycin and 2 mM 1-glutamine. The human gastric carcinoma AGS cell line (CCRC 60102), obtained from the Food Industry Research and Development Institute (Hsinchu, Taiwan), was maintained as described above, except that DMEM/F 12 was used as the medium rather than the RPMI 1640 medium. The human breast carcinoma MCF-7 cell line MCF-7 (ATTC) was cultured in RPMI 1640 medium supplemented with 5% fetal calf serum at 37° C. in a humidified atmosphere of 5% CO2 in air. The mouse macrophage cell line RAW 264.7 was maintained in RPMI 1640 supplemented with 100 U/ml penicillin, 100 μg/ml streptomycin, and 10% heat-inactivated fetal calf serum.
# (§2) Cancer cells (2×10^5) were plated in 12-well Petri dishes. The next day, the medium was changed and treated with different concentration of the test compounds or compositions for 24 h. Where individual compounds were to be tested, stock solutions of the compound was prepared to contain 200 μM of the individual hydroxylated or non-hydroxylated PMF in dimethylsulfoxide (DMSO). Control cells were treated with DMSO to a final concentration of 0.05% (v/v). Depending on the objective of the particular experiment, cells were treating with test compound or composition for 1, 3 or 6 days. At the end of incubation, cells were harvested for cell count using a hemocytometer and measuring the cellular total nucleic acid content with the CyQUANT Cell Proliferation Assay Kit (Molecular Probes).
# (§3) 1 N PMF and 6 N PMF compositions containing hydroxylated PMFs, prepared as described in Section 8.3 above, 70% PMF OPE and 5,6,7,8,3′,4′-hexamethoxyflavone (nobiletin) were tested for antiproliferative activity and apoptosis-inducing activity in HL-60, AGS and COLO205 cells as described in Section 8.4 above. Antiproliferative and apoptosis-inducing activities were derived as IC50 values and AC50, values, respectively, where AC50 is the concentration required for 50% apoptosis.
# (§4) The PMF compounds were assayed in vitro for cell growth inhibition and for their ability to induce apoptosis in various human cancer cells, including HL-60, AGS, COLO 205, and HT-29 cells, using methods described in Section 8.4 above. Antiproliferative (IC50) and apoptosis-inducing activity (AC50) of PMFs in the HL-60, AGS, COLO 205, and HT-29 cells are reported in Table 9, where *P<0.05, **P<0.01 and ***P<0.001 indicate statistically significant differences from the control group.
# [2] = tested on: COLO205 cells; assay: Cell survival assay (antiproliferative IC50); conditions: COLO205 cells, read-out: Antiproliferative IC50
# Protocol: as §1, §2, §3, §4
# [3] = tested on: HL-60 cells; assay: Cell survival assay (antiproliferative IC50); conditions: HL-60 cells, read-out: Antiproliferative IC50
# Protocol: as §1, §2, §3, §4
# [4] = tested on: HT-29 cells; assay: Cell survival assay (antiproliferative IC50)
# Protocol: as §1, §2, §4
# [5] = tested on: AGS cells; assay: Cell cycle distribution by flow cytometry; conditions: 24 h
# Protocol: (§5) The human cancer cells (2×10^5) were cultured in 60-mm Petri dishes and incubated for 24 h. After treated with test compounds for 24 h, the cells were then harvested, washed with PBS resuspended in 200 μL of PBS, and fixed in 800 μL of iced 100% ethanol at −20° C. After being left to stand overnight, the cell pellets were collected by centrifugation, resuspended in 1 mL of hypotonic buffer (0.5% Triton X-100 in PBS and 0.5 μg/mL RNase) and incubated at 37° C. for 30 min. Next, 1 mL of propidium iodide solution (50 μg/mL) was added, and the mixture was allowed to stand on ice for 30 min. Fluorescence emitted from the propidium iodide-DNA complex was quantitated after excitation of the fluorescent dye by FACScan cytometry (Becton Dickinson, San Jose, Calif.).
# (§6) The effects of the hydrolyzed PMF-enriched compositions, nobiletin and 70% PMF OPE on cell cycle distribution were studied, following the procedures described in Section 8.4. Results for cell cycle distribution in HL-60 cells, COLO205 cells and AGS cells are provided in Table 5, Table 6 and Table 7, respectively. […] In HL-60 cells, G2/M arrest predominated in cells treated with 6N PMF concentrations ≧5 μM and with 1N PMF concentrations ≧25 μM.
# (§7) Compounds A-K were evaluated in terms of their effects in arresting cell cycle progression by observing cell cycle phase distribution in cells treated with the compounds. Cells were treated with 5, 10, 25, 50, and 100 μM of one of compound A-K or DMSO (control) for 24 h and subjected to flow cytometric analysis after staining their DNA, as described above.
# (§8) Similar cell cycle phase distribution studies were performed in AGS, COLO205, and HT-29 cells in response to individual PMFs, with results reported in Tables 11, 12 and 13, respectively.
# [6] = tested on: COLO205 cells; assay: Cell cycle distribution by flow cytometry; conditions: 24 h; for Cell Cycle Distribution G0/G1 / Cell Cycle Distribution G2/M / Cell Cycle Distribution S: COLO205 cells
# Protocol: as §5, §6, §7, §8
smiles,measurement,setting,value
"COc1ccc(-c2oc3c(OC)c(OC)c(OC)c(OC)c3c(=O)c2O)cc1OC [B, 3-hydroxy-5,6,7,8,3′,4-hexamethoxyflavone]",IC50,[1],72.3 ± 7.91 µM
same,IC50,[2],23.3 ± 1.56 µM
same,IC50,[3],> 100 µM
same,IC50,[4],63.63 ± 0.49 µM
same,Cell Cycle Distribution G0/G1,"[5]; 5 μM, Table 11",47.1 ± 1.27
same,Cell Cycle Distribution G2/M,"[5]; 5 μM, Table 11",5.6 ± 0.28
same,Cell Cycle Distribution S,"[5]; 5 μM, Table 11",45.8 ± 1.20
same,Cell Cycle Distribution G0/G1,"[5]; 10 μM, Table 11",46.7 ± 0.92
same,Cell Cycle Distribution G2/M,"[5]; 10 μM, Table 11",10.4 ± 0.07
same,Cell Cycle Distribution S,"[5]; 10 μM, Table 11",44.1 ± 0.57
same,Cell Cycle Distribution G0/G1,"[5]; 25 μM, Table 11",39.8 ± 0.78
same,Cell Cycle Distribution G2/M,"[5]; 25 μM, Table 11",6.5 ± 0.07
same,Cell Cycle Distribution S,"[5]; 25 μM, Table 11",54.2 ± 0.28
same,Cell Cycle Distribution G0/G1,"[5]; 50 μM, Table 11",43.1 ± 1.56
same,Cell Cycle Distribution G2/M,"[5]; 50 μM, Table 11",7.4 ± 0.42
same,Cell Cycle Distribution S,"[5]; 50 μM, Table 11",51.2 ± 1.06
same,Cell Cycle Distribution G0/G1,"[5]; 100 μM, Table 11",46.8 ± 0.28
same,Cell Cycle Distribution G2/M,"[5]; 100 μM, Table 11",9.3 ± 0.42
same,Cell Cycle Distribution S,"[5]; 100 μM, Table 11",44.5 ± 0.14
same,Cell Cycle Distribution G0/G1,"[6]; 5 μM, Table 12",63.59 ± 0.48
same,Cell Cycle Distribution G2/M,"[6]; 5 μM, Table 12",0.89 ± 0.94
same,Cell Cycle Distribution S,"[6]; 5 μM, Table 12",35.53 ± 0.46
same,Cell Cycle Distribution G0/G1,"[6]; 10 μM, Table 12",63.12 ± 0.20
same,Cell Cycle Distribution G2/M,"[6]; 10 μM, Table 12",5.63 ± 0.28
same,Cell Cycle Distribution S,"[6]; 10 μM, Table 12",31.25 ± 0.48
same,Cell Cycle Distribution G0/G1,"[6]; 25 μM, Table 12",64.96 ± 0.99
same,Cell Cycle Distribution G2/M,"[6]; 25 μM, Table 12",0.41 ± 0.31
same,Cell Cycle Distribution S,"[6]; 25 μM, Table 12",34.63 ± 0.68
same,Cell Cycle Distribution G0/G1,"[6]; 50 μM, Table 12",63.32 ± 0.52
same,Cell Cycle Distribution G2/M,"[6]; 50 μM, Table 12",0.31 ± 0.11
same,Cell Cycle Distribution S,"[6]; 50 μM, Table 12",36.39 ± 0.62
same,Cell Cycle Distribution G0/G1,"[6]; 100 μM, Table 12",78.51 ± 0.63
same,Cell Cycle Distribution G2/M,"[6]; 100 μM, Table 12",3.99 ± 0.95
same,Cell Cycle Distribution S,"[6]; 100 μM, Table 12",17.51 ± 1.58
"COc1ccc(-c2cc(=O)c3c(OC)c(OC)c(OC)c(OC)c3o2)cc1OC [Compound A, 5,6,7,8,3′,4′-hexamethoxyflavone, reference compound]",IC50,"[1]; Homo sapiens, Table 4",> 100 µg/mL
same,IC50,[1]; Homo sapiens,> 100 µM
same,IC50,"[2]; Homo sapiens, COLO 205, Table 4",66.7 ± 0.73 µg/mL
same,IC50,"[2]; Homo sapiens, COLO 205",38 ± 1.4 µM
same,IC50,"[3]; Homo sapiens, Table 4",> 100 µg/mL
same,IC50,[3]; Homo sapiens,> 100 µM
same,IC50,[4]; Homo sapiens,> 100 µM
same,Cell Cycle Distribution G0/G1,"[5]; 5 μM, Table 7",58.67 ± 0.61
same,Cell Cycle Distribution G2/M,"[5]; 5 μM, Table 7",13.50 ± 1.34
same,Cell Cycle Distribution S,"[5]; 5 μM, Table 7",27.84 ± 1.94
same,Cell Cycle Distribution G0/G1,"[5]; 5 μM, Table 11",44.7 ± 0.71
same,Cell Cycle Distribution G2/M,"[5]; 5 μM, Table 11",0.4 ± 0.57
same,Cell Cycle Distribution S,"[5]; 5 μM, Table 11",54.4 ± 0.64
same,Cell Cycle Distribution G0/G1,"[5]; 10 μM, Table 7",59.74 ± 0.36
same,Cell Cycle Distribution G2/M,"[5]; 10 μM, Table 7",13.57 ± 1.23
same,Cell Cycle Distribution S,"[5]; 10 μM, Table 7",26.70 ± 0.87
same,Cell Cycle Distribution G0/G1,"[5]; 10 μM, Table 11",47.1 ± 0.28
same,Cell Cycle Distribution G2/M,"[5]; 10 μM, Table 11",5.0 ± 0.64
same,Cell Cycle Distribution S,"[5]; 10 μM, Table 11",49.1 ± 0.64
same,Cell Cycle Distribution G0/G1,"[5]; 25 μM, Table 7",59.56 ± 1.98
same,Cell Cycle Distribution G2/M,"[5]; 25 μM, Table 7",13.50 ± 0.35
same,Cell Cycle Distribution S,"[5]; 25 μM, Table 7",26.95 ± 2.33
same,Cell Cycle Distribution G0/G1,"[5]; 25 μM, Table 11",52.9 ± 1.06
same,Cell Cycle Distribution G2/M,"[5]; 25 μM, Table 11",2.8 ± 0.35
same,Cell Cycle Distribution S,"[5]; 25 μM, Table 11",43.7 ± 0.42
same,Cell Cycle Distribution G0/G1,"[5]; 50 μM, Table 7",56.45 ± 0.03
same,Cell Cycle Distribution G2/M,"[5]; 50 μM, Table 7",15.25 ± .33
same,Cell Cycle Distribution S,"[5]; 50 μM, Table 7",28.31 ± 0.36
same,Cell Cycle Distribution G0/G1,"[5]; 50 μM, Table 11",53.8 ± 0.64
same,Cell Cycle Distribution G2/M,"[5]; 50 μM, Table 11",6.6 ± 0.69
same,Cell Cycle Distribution S,"[5]; 50 μM, Table 11",41.3 ± 0.92
same,Cell Cycle Distribution G0/G1,"[5]; 100 μM, Table 7",46.13 ± 4.96
same,Cell Cycle Distribution G2/M,"[5]; 100 μM, Table 7",15.54 ± 1.10
same,Cell Cycle Distribution S,"[5]; 100 μM, Table 7",28.33 ± 3.86
same,Cell Cycle Distribution G0/G1,"[5]; 100 μM, Table 11",66.9 ± 0.14
same,Cell Cycle Distribution G2/M,"[5]; 100 μM, Table 11",3.2 ± 0.57
same,Cell Cycle Distribution S,"[5]; 100 μM, Table 11",31.0 ± 0.64
same,Cell Cycle Distribution G0/G1,"[6]; 5 μM, Table 6",63.83 ± 0.29
same,Cell Cycle Distribution G2/M,"[6]; 5 μM, Table 6",8.25 ± 0.69
same,Cell Cycle Distribution S,"[6]; 5 μM, Table 6",27.93 ± 0.98
same,Cell Cycle Distribution G0/G1,"[6]; 5 μM, Table 12",63.63 ± 0.53
same,Cell Cycle Distribution G2/M,"[6]; 5 μM, Table 12",1.58 ± 0.04
same,Cell Cycle Distribution S,"[6]; 5 μM, Table 12",34.80 ± 0.57
same,Cell Cycle Distribution G0/G1,"[6]; 10 μM, Table 6",71.13 ± 0.65
same,Cell Cycle Distribution G2/M,"[6]; 10 μM, Table 6",7.42 ± 0.48
same,Cell Cycle Distribution S,"[6]; 10 μM, Table 6",21.45 ± 0.17
same,Cell Cycle Distribution G0/G1,"[6]; 10 μM, Table 12",67.25 ± 0.38
same,Cell Cycle Distribution G2/M,"[6]; 10 μM, Table 12",0.25 ± 0.25
same,Cell Cycle Distribution S,"[6]; 10 μM, Table 12",32.50 ± 0.13
same,Cell Cycle Distribution G0/G1,"[6]; 25 μM, Table 6",84.21 ± 4.38
same,Cell Cycle Distribution G2/M,"[6]; 25 μM, Table 6",4.50 ± 0.35
same,Cell Cycle Distribution S,"[6]; 25 μM, Table 6",14.29 ± 0.22
same,Cell Cycle Distribution G0/G1,"[6]; 25 μM, Table 12",69.94 ± 1.02
same,Cell Cycle Distribution G2/M,"[6]; 25 μM, Table 12",0.64 ± 0.07
same,Cell Cycle Distribution S,"[6]; 25 μM, Table 12",27.42 ± 1.09
same,Cell Cycle Distribution G0/G1,"[6]; 50 μM, Table 6",76.82 ± 1.48
same,Cell Cycle Distribution G2/M,"[6]; 50 μM, Table 6",6.30 ± 0.08
same,Cell Cycle Distribution S,"[6]; 50 μM, Table 6",16.89 ± 1.39
same,Cell Cycle Distribution G0/G1,"[6]; 50 μM, Table 12",82.40 ± 0.63
same,Cell Cycle Distribution G2/M,"[6]; 50 μM, Table 12",0.29 ± 0.08
same,Cell Cycle Distribution S,"[6]; 50 μM, Table 12",17.50 ± 0.45
same,Cell Cycle Distribution G0/G1,"[6]; 100 μM, Table 6",77.12 ± 2.00
same,Cell Cycle Distribution G2/M,"[6]; 100 μM, Table 6",5.11 ± .46
same,Cell Cycle Distribution S,"[6]; 100 μM, Table 6",17.74 ± 2.40
same,Cell Cycle Distribution G0/G1,"[6]; 100 μM, Table 12",65.60 ± 0.65
same,Cell Cycle Distribution G2/M,"[6]; 100 μM, Table 12",6.20 ± 1.25
same,Cell Cycle Distribution S,"[6]; 100 μM, Table 12",28.21 ± 0.60
same,"Cell cycle arrest, in words","[6]; COLO 205 cells, compound A 50 μM, compound I 100 μM",trends in G1 arrest
